Assay type in all cases: cell-based
Data set [1] relates to human lung cancer cell line NCI-H460. As to the kind of experiment: Apoptosis of NCI-H460 cells (apoptosis detection kit, flow cytometry). Conditions: NCI-H460, 10.0 μM, 24 h. As to the method:
(§1) The cells, when grow to the logarithmic growth phase, were digested with 0.25% trypsin, centrifuged at 1000×g for 5 min, and the cell pellet were re-suspended with 1640 medium containing 10% FBS and inoculated in a 96-well culture plate at a density of 3.0×10^5 cells/well, and then cultured overnight at 37° C., 5% CO2 and saturated humidity. 2.2 Each group was set up with 3 duplicate wells, and drugs were added to each well according to the following conditions, and then cultured for 24 h. […] Sulforaphane added at a final concentration of 10.0 μM. CT-3 group: CT-3 added at a final concentration of 10.0 μM. The above cells were intervened for 24 hours, and then the effect of CT-3 on tumor cell apoptosis was determined by apoptosis detection kit and flow cytometry.
A general note: A flow cytometer gives signals particle by particle.

In data set [2] the test system is human colon cancer cell line SW480. As to the kind of experiment: Apoptosis of SW480 cells (apoptosis detection kit, flow cytometry). As to conditions: SW480, 10.0 μM, 24 h. Here is the method:
as §1, with “in a 6-well culture plate” for “in a 96-well culture plate”, “group: CT-3 was added at” for “group: CT-3 added at”

Data set [3] deals with human lung cancer cell line H1650. As to the kind of experiment: Proliferation of H1650 cells (CCK8 kit). As to the method:
(§2) Human glioma cell line U251, human lung cancer cell line H1650, human liver cancer cell line HepG2, human breast cancer cell line MDA-MB-231, human gastric cancer cell line AGS, human colon cancer cell line LOVO, human ovarian cancer cell line OVCAR3. 2.1 Cultivation of the above 7 kinds of cancer cells. The cells, when grow to the logarithmic growth phase, were digested with 0.25% trypsin, centrifuged at 1000×g for 5 min, and the cell pellet were re-suspended with 1640 medium containing 10% FBS and inoculated in a 96-well culture plate at a density of 5000 cells/well, and then cultured overnight at 37° C., 5% CO2 and saturated humidity. 2.2 Each group was set up with 6 duplicate wells, and drugs were added to each well according to the following conditions, and then cultured for 24 h. Positive control groups: […] Sulforaphane added at a final concentration of 5.0 μM; • Positive control group 5: Sulforaphane added at a final concentration of 10.0 μM; • Positive control group 6: Sulforaphane added at a final concentration of 20.0 μM. CT-3 groups: Divided into 3 groups: • CT-3 group 1: CT-3 added at a final concentration of 5.0 μM; • CT-3 group 2: CT-3 added at a final concentration of 10.0 μM; • CT-3 group 3: CT-3 added at a final concentration of 20.0 μM. The above cells were intervened for 24 hours, and then the effects of drugs on tumor cell proliferation were detected by using CCK8 kit.

Data set [4] concerns human ovarian cancer cell line OVCAR3. The data set can be described thus: Proliferation of OVCAR3 cells (CCK8 kit). As to the method:
as §2
For orientation: Tetrazolium assays rely on reduction of a dye to a coloured formazan, in cell work by metabolically active cells.

The test system of data set [5] is human colon cancer cell line LOVO. As to the kind of experiment: Proliferation of LOVO cells (CCK8 kit). As to conditions: 24 h. As to the method:
as §2

Data set [6] has as its system human glioma cell line U251. The data set can be described thus: Proliferation of U251 cells (CCK8 kit). Here is the method:
as §2

Data set [7] has as its system seven human cancer cell lines. As to the kind of experiment: Proliferation of seven human cancer cell lines (CCK8 kit), summary over the panel. Here is the method:
as §2

Data set [8] deals with human gastric cancer cell line AGS. As to the kind of experiment: Proliferation of AGS cells (CCK8 kit). Conditions: 24 h. Here is the method:
as §2

The subject of data set [9] is human hepatic normal cell line LO2. As to the kind of experiment: Apoptosis of normal LO2 cells (apoptosis detection kit, flow cytometry). Conditions: 24 h.
The subject of data set [10] is human breast cancer cell line MDA-MB-231. The data set can be described thus: Proliferation of MDA-MB-231 cells (CCK8 kit). Conditions: MDA-MB-231, 24 h. As to the method:
as §2

Data set [11] deals with human liver cancer cell line HepG2. As to the kind of experiment: Proliferation of HepG2 cells (CCK8 kit). Conditions: HepG2, 24 h. Here is the method: as §2
The test system of data set [12] is human lung cancer cell line NCI-H460. The data set can be described thus: Proliferation of NCI-H460 cells (CCK8 kit). Here is the method:
2.1 Cultivation of NCI-H460 Cells. The Cells, when Grow to the Logarithmic Growth phase, were digested with 0.25% trypsin, centrifuged at 1000×g for 5 min, and the cell pellet were re-suspended with 1640 medium containing 10% FBS and inoculated in a 96-well culture plate at a density of 5000 cells/well, and then cultured overnight at 37° C., 5% CO2 and saturated humidity.
2.2 Six duplicate wells were set in each group, and drugs were added to each well according to the following conditions, and then cultured for 24 h.
Control group: The group without drugs.
Magnolol group: Magnolol added at a final concentration of 20 μM.
CT-1 group: CT-1 added at a final concentration of 20 μM.
CT-2 group: CT-2 added at a final concentration of 20 μM.
CT-3 group: CT-3 added at a final concentration of 20 μM.
The above cells were intervened for 24 hours, and then the effects of drugs on tumor cell proliferation were detected by using CCK8 kit. The specific operations are as follows: […] was added to each well and cultured for 2 h, and then the absorbance (OD) value at a wavelength of 450 nm was measured on a microplate reader, and the cell survival rate of the other groups was calculated on the basis of the cell survival rate of the control group as 100%.

Setting [13] is: NCI-H1650, H1650, 24 h, CCK8, read-out: Half maximal inhibitory concentration (IC50).
Setting [14] is: OVCAR-3, OVCAR3, 24 h, CCK8, read-out: Half maximal inhibitory concentration (IC50).
Where [15] appears, read: LOVO, CCK8, read-out: Half maximal inhibitory concentration (IC50).
Setting [16] is: U-251, U251, 24 h, CCK8, read-out: Half maximal inhibitory concentration (IC50).
[17] abbreviates: U251, H1650, HepG2, MDA-MB-231, AGS, LOVO, OVCAR3, 24 h, CCK8, read-out: IC50 against 7 kinds of human cancer cells (range over the panel).
Setting [18] is: CCK8, read-out: Half maximal inhibitory concentration (IC50).
[19] abbreviates: read-out: Half maximal inhibitory concentration (IC50).
Where [20] appears, read: NCI-H460, 20 μM, 24 h, CCK8, read-out: Inhibition Rate (%).

Like-named read-outs stand apart in the source and are kept apart here. Bounds are passed on as bounds.

One may read the inhibition as the drop in the measured response relative to a control, in per cent.

As for `C[S+]([O-])CCCCN=C=S` (stereo not shown) [Sulforaphane], the “Apoptosis Rate (%)” value in data set [1] worked out at 18.90%; in data set [2] it was 19.99%; in [9] (human, 10 μM), 6.52%. Moreover, the IC50 in data set [3] (setting [13]) was 22 µM; in data set [4] (setting [14]), 18.4 µM; in data set [5] (setting [15]), 18.5 µM; in data set [6] (setting [16]) it was 22.5 µM; in data set [7] (setting [17]), 18.4 to 22.5 µM; in data set [8] (setting [18]) it was 18.1 µM. The IC50 was determined as 22.2 µM in data set [10] (setting [18]) and 21 µM in [11] (setting [18]).

As to `C=CCc1ccc(O)c(-c2cc(CC=C)ccc2O)c1` [Magnolol], the “Apoptosis Rate (%)” value is on record as 3.12% in data set [1]; 4.02% in [2]; 4.71% in data set [9] (normal LO2 cells, 10.0 μM, flow cytometry). Besides, the IC50 is more than 45 µM in [3] (NCI-H1650, 24 h, read-out: Half maximal inhibitory concentration (IC50)); more than 45 µM in data set [4] (OVCAR-3, 24 h, read-out: Half maximal inhibitory concentration (IC50)); more than 45 µM in data set [5] (LoVo, read-out: Half maximal inhibitory concentration (IC50)); more than 45 µM in data set [6] (U-251, 24 h, read-out: Half maximal inhibitory concentration (IC50)); more than 45 µM in data set [7] (24 h, read-out: IC50 against 7 kinds of human cancer cells (range over the panel)); more than 45 µM in [8] (setting [19]). Further, the IC50 in [10] (setting [19]) and in data set [11] (setting [19]) was more than 45 µM throughout. For the same compound, the inhibition at 20 µM in [12] (NCI-H460, 24 h, read-out: Inhibition Rate (%)) worked out at 1.2%.

For the compound `C=CCc1ccc(O)c(-c2cc(CC=C)ccc2OCCS(=O)(=O)CCCCN=C=S)c1` [CT-2], in data set [12] (setting [20]), the inhibition at 20 µM came out at 70.3%.

In the case of `C=CCc1ccc(O)c(-c2cc(CC=C)ccc2OCC[S+]([O-])CCCCN=C=S)c1` (stereo not shown) [CT-3], the “Apoptosis Rate (%)” value worked out at 73.82% in data set [1]; 61.87% in data set [2]; 6.48% in [9] (human, 10 μM). Also, the IC50 in data set [3] (setting [13]) was 6.92 µM; in data set [4] (setting [14]), 5.34 µM; in data set [5] (setting [15]), 5.1 µM; in data set [6] (setting [16]), 7.75 µM; in data set [7] (setting [17]) it was 5.1 to 8.02 µM; in [8] (setting [18]), 8.02 µM. Besides, the IC50 in data set [10] (setting [18]) came to 7.48 µM; in data set [11] (setting [18]) it was 6.24 µM. Besides, the inhibition at 20 µM in [12] (setting [20]) amounted to 99%.

Regarding `C=CCc1ccc(O)c(-c2cc(CC=C)ccc2OCCSCCCCN=C=S)c1` [CT-1], in data set [12] (setting [20]), the inhibition at 20 µM came out at 18.4%.

The values above are taken from US20240299556A1, “Magnolol and Sulforaphane Conjgate, and Preparation Method and Use Thereof” (Shenzhen Zhenxing Biomedicine Research Center Co., Ltd., priority 2019, published 2024).
